Measured values: PubChem BioAssay AID2060627 (Molecular Pharmacology Branch, DTP, NCI, 2025)

Tested on: 156681-154-R-J1-PDC complex spheroid viability
Assay: Anticancer human tumor 156681-154-R-J1-PDC patient-derived melanoma cell line growth inhibition [CLK]
Details: for IC50: curve of first compound; for viability, T/C: stronger effect = lower value
Source text: A high-throughput screen of multi-cell type tumor spheroids was designed to identify active combinations of […] and targeted small molecules. Complex spheroids include a stromal component modeled by human endothelial cells (HUVEC) and fibroblasts modeled by human mesenchymal stem cells (MSCs). The concentration ranges selected for each drug and investigational agent were based upon clinically achievable concentrations if the clinical Cmax of the agent was known.
Compounds. The drugs and investigational agents: cirtuvivint (SM08502; NSC835563), CC-671 (NSC850746), vemurafenib (NSC761431), tapotoclax (NSC804041), sotorasib (NSC818433), adagrasib (NSC831453), MRTX-1133 (NSC836407), BAY2416964 (NSC825713), copanlisib (NSC816437), inavolisib (NSC800729), abemaciclib (NSC768073), osimertinib (NSC779217), entinostat (NSC756642), eltanexor (KPT-8602, NSC794443), venetoclax (NSC766270), ceralasertib (NSC777638), bortezomib (NSC756655), olaparib (NSC753686), talazoparib (NSC767125), alisertib (NSC759677), peposertib (NSC802822), gemcitabine (NSC613327), 5-fluorouracil (NSC19893), SN-38 (NSC673596), oxaliplatin (NSC266046), paclitaxel (NSC125973), and doxorubicin (NSC123127), were obtained from the National Cancer Institute (NCI) Developmental Therapeutics Program Chemical Repository. The FDA-approved anticancer drug set is available from the Developmental Therapeutics Program at https://dtp.cancer.gov/organization/dscb/obtaining/available plates.htm. […] The stock solutions were prepared in dimethyl sulfoxide (DMSO, Sigma-Aldrich, St. Louis, MO, cat. D2650), except for the platinum complexes which were prepared in saline (Quality Biological, Gaithersburg, MD, cat. 114-055-101), at 800-fold the tested concentration and stored at -70 degrees C prior to their use. All drugs and investigational agents were tested over a range starting from a high concentration at or near the clinical Cmax and decreasing in half-log increments. If the clinical Cmax for an agent had not been determined, the highest concentration tested was 10 microM.
Cell Culture. All cells were maintained in an incubator at 37 degrees C and 5% CO2 with 95% humidity. The PDC lines were cultured according to standard operating procedures established by the NCI PDMR. Briefly, all PDCs were thawed and cultured in Matrigel-coated flasks prepared with a working solution of 1X Ham's F-12 nutrient mix, without supplementation (Invitrogen, Waltham, MA, cat. 11765054), 100 U/mL penicillin-streptomycin (Invitrogen, cat. 15140122), and 2.5% Matrigel (Corning Inc., Corning, NY, cat. 354248) for the first three passages. The 947758-054-R-J2-PDC line was cultured in 6B/Colon 1A media, which includes advanced DMEM/F-12 (Thermo Fisher Scientific, cat. 12634028), 10 mM HEPES (Thermo Fisher Scientific, cat. 15630080), 1X GlutaMAX supplement (Thermo Fisher Scientific, cat. 35050061), 0.1 mg/mL primocin (InvivoGen, cat. ant-pm-2), 10% defined fetal bovine serum, heat inactivated (HyClone Laboratories Inc., cat. SH30070.03HI), 1.25 mM N-Acetyl-L-cysteine (Sigma-Aldrich, cat. A9165), 10 mM nicotinamide (Sigma-Aldrich, cat. N0636), 1X B-27 supplement (Thermo Fisher Scientific, cat. 17504044), 1X N-2 supplement (Thermo Fisher Scientific, cat. 17502048), and 10 microM Y-27632 dihydrochloride (Tocris Bioscience, cat. 1254). The 876862-298-R-J1-PDC was cultured in 6E media, which includes all 6B/Colon 1A media components plus 50% L-WRN conditioned media (ATCC, cat. CRL-3276), 50 ng/mL recombinant human EGF recombinant protein (hEGF; Thermo Fisher Scientific, cat. PHG0311), 10 ng/mL recombinant human fibroblast growth factor 10 (hGFG-10; PeproTech, cat. 100-26), 1 ng/mL recombinant human fibroblast growth factor 2 (hFGF-2; PeproTech, cat. 100-18B), and 1 µM prostaglandin E2 (PGE2; Tocris, cat. 2296). The 227483-062-R1-J1-PDC line was cultured in Panc media, containing all 6E components except hFGF-2, with the addition of 500 nM SB-431542 (Selleckchem, cat. S1067) and 10 nM gastrin (Tocris, cat. 3006). […]

[1] = second compound 0.0316 µM, first compound 0.00316 µM
[2] = second compound 0.0316 µM, first compound 0.01 µM
[3] = second compound 0.0316 µM, first compound 0.0316 µM
[4] = second compound 0.0316 µM, first compound 0.1 µM
[5] = second compound 0.1 µM, first compound 0.00316 µM
[6] = second compound 0.1 µM, first compound 0.01 µM
[7] = second compound 0.1 µM, first compound 0.0316 µM
[8] = second compound 0.1 µM, first compound 0.1 µM
[9] = second compound 0.316 µM, first compound 0.00316 µM
[10] = second compound 0.316 µM, first compound 0.01 µM
[11] = second compound 0.316 µM, first compound 0.0316 µM
[12] = second compound 0.316 µM, first compound 0.1 µM
[13] = second compound 1 µM, first compound 0.00316 µM
[14] = second compound 1 µM, first compound 0.01 µM
[15] = second compound 1 µM, first compound 0.0316 µM
[16] = second compound 1 µM, first compound 0.1 µM
[17] = second compound 3.16 µM, first compound 0.00316 µM
[18] = second compound 3.16 µM, first compound 0.01 µM
[19] = second compound 3.16 µM, first compound 0.0316 µM
[20] = second compound 3.16 µM, first compound 0.1 µM
[21] = second compound 10 µM, first compound 0.00316 µM
[22] = second compound 10 µM, first compound 0.01 µM
[23] = second compound 10 µM, first compound 0.0316 µM
[24] = second compound 10 µM, first compound 0.1 µM
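Further: spheroids exposed to the agents for seven days.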
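Wherever viability, T/C is given: 100% = DMSO vehicle control viability.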

Cn1ncnc1[C@H]1c2n[nH]c(=O)c3cc(F)cc(c23)N[C@@H]1c1ccc(F)cc1 + CNC(=O)c1ccc(Nc2nc(OC3CCCC3)c3c(-c4ccc5nc(C)oc5c4)c[nH]c3n2)c(OC)c1 gave an IC50 (second compound 0.0316 µM) greater than 100 nM, an IC50 (second compound 0.1 µM) greater than 100 nM and an IC50 (second compound 0.316 µM) greater than 100 nM. It also gave an IC50 (second compound 1 µM) of 0.316 nM, an IC50 (second compound 3.16 µM) of less than 0.316 nM and an IC50 (second compound 10 µM) of less than 0.316 nM. For the same compound, the viability, T/C (second compound 0.0316 µM, first compound 0.000316 µM) was 91.5%, the viability, T/C (second compound 0.0316 µM, first compound 0.001 µM) was 87.8% and the viability, T/C [1] was 74.9%. It also gave a viability, T/C [2] of 84.6%, a viability, T/C [3] of 83.2% and a viability, T/C [4] of 64.1%. The viability, T/C (second compound 0.1 µM, first compound 0.000316 µM) was 56.9%, the viability, T/C (second compound 0.1 µM, first compound 0.001 µM) was 68.6% and the viability, T/C [5] was 75.9%. It also gave a viability, T/C [6] of 66.6%, a viability, T/C [7] of 62.3% and a viability, T/C [8] of 53.5%. The viability, T/C (second compound 0.316 µM, first compound 0.000316 µM) was 67%, the viability, T/C (second compound 0.316 µM, first compound 0.001 µM) was 68.4% and the viability, T/C [9] was 55.4%. For the same compound, the viability, T/C [10] was 58.4%, the viability, T/C [11] was 60% and the viability, T/C [12] was 51.9%. For the same compound, the viability, T/C (second compound 1 µM, first compound 0.000316 µM) was 51.8%, the viability, T/C (second compound 1 µM, first compound 0.001 µM) was 51.1% and the viability, T/C [13] was 39.8%. The viability, T/C [14] was 44.3%, the viability, T/C [15] was 53.6% and the viability, T/C [16] was 29.3%. The viability, T/C (second compound 3.16 µM, first compound 0.000316 µM) was 55.1%, the viability, T/C (second compound 3.16 µM, first compound 0.001 µM) was 41.5% and the viability, T/C [17] was 43.6%. For the same compound, the viability, T/C [18] was 49.5%, the viability, T/C [19] was 39.5% and the viability, T/C [20] was 33.1%. It also gave a viability, T/C (second compound 10 µM, first compound 0.000316 µM) of 49.3%, a viability, T/C (second compound 10 µM, first compound 0.001 µM) of 43.9% and a viability, T/C [21] of 33.6%. The viability, T/C [22] was 32.5%, the viability, T/C [23] was 38.6% and the viability, T/C [24] was 25.4%.
CCc1c2c(nc3ccc(O)cc13)-c1cc3c(c(=O)n1C2)COC(=O)[C@]3(O)CC + CNC(=O)c1ccc(Nc2nc(OC3CCCC3)c3c(-c4ccc5nc(C)oc5c4)c[nH]c3n2)c(OC)c1 gave an IC50 (second compound 0.0316 µM) of less than 3.16 nM, an IC50 (second compound 0.1 µM) of less than 3.16 nM and an IC50 (second compound 0.316 µM) of less than 3.16 nM. For the same compound, the IC50 (second compound 1 µM) was less than 3.16 nM, the IC50 (second compound 3.16 µM) was less than 3.16 nM and the IC50 (second compound 10 µM) was less than 3.16 nM. For the same compound, the viability, T/C [1] was 27.7%, the viability, T/C [2] was 15% and the viability, T/C [3] was 18%. For the same compound, the viability, T/C [4] was 19.4%, the viability, T/C (second compound 0.0316 µM, first compound 0.316 µM) was 16.6% and the viability, T/C (second compound 0.0316 µM, first compound 1 µM) was 4.47%. For the same compound, the viability, T/C [5] was 24.1%, the viability, T/C [6] was 16.7% and the viability, T/C [7] was 14%. For the same compound, the viability, T/C [8] was 17.7%, the viability, T/C (second compound 0.1 µM, first compound 0.316 µM) was 14.9% and the viability, T/C (second compound 0.1 µM, first compound 1 µM) was 5.02%. The viability, T/C [9] was 27.4%, the viability, T/C [10] was 14.2% and the viability, T/C [11] was 12.8%. The viability, T/C [12] was 16.4%, the viability, T/C (second compound 0.316 µM, first compound 0.316 µM) was 14.8% and the viability, T/C (second compound 0.316 µM, first compound 1 µM) was 5.29%. It also gave a viability, T/C [13] of 21.9%, a viability, T/C [14] of 11.3% and a viability, T/C [15] of 10.5%. For the same compound, the viability, T/C [16] was 14.7%, the viability, T/C (second compound 1 µM, first compound 0.316 µM) was 9.49% and the viability, T/C (second compound 1 µM, first compound 1 µM) was 5.41%. The viability, T/C [17] was 20.9%, the viability, T/C [18] was 15.8% and the viability, T/C [19] was 10.4%. For the same compound, the viability, T/C [20] was 14.2%, the viability, T/C (second compound 3.16 µM, first compound 0.316 µM) was 13.1% and the viability, T/C (second compound 3.16 µM, first compound 1 µM) was 2.05%. The viability, T/C [21] was 18.9%, the viability, T/C [22] was 12% and the viability, T/C [23] was 11.1%. The viability, T/C [24] was 12.5%, the viability, T/C (second compound 10 µM, first compound 0.316 µM) was 9.62% and the viability, T/C (second compound 10 µM, first compound 1 µM) was 1.61%.
